Experimental data taken from patent publication US8927717B1, “Thiochromeno[2,3-c]quinolin-12-one derivatives, preparation method and application thereof” (National Defense Medical Center, priority 2014, dated 2015).

Key:
UACC-257 = format: cell-based; conditions: 10^−5 molar; for Growth percent: UACC-257
OVCAR-4 = format: cell-based; conditions: 10^−5 molar; for Growth percent: OVCAR-4
MDA-MB-435 = format: cell-based; conditions: 10^−5 molar; for Growth percent: MDA-MB-435
TK-10 = format: cell-based; conditions: 10^−5 molar; for Growth percent: TK-10
SK-MEL-28 = format: cell-based; conditions: 10^−5 molar; for Growth percent: SK-MEL-28
SNB-19 = format: cell-based; conditions: 10^−5 molar; for Growth percent: SNB-19
HCC-2998 = format: cell-based; conditions: 10^−5 molar; for Growth percent: HCC-2998
OVCAR-3 = format: cell-based; conditions: Ovarian cancer; 10^−5 molar; 48 hours; SRB
IGROV1 = format: cell-based; conditions: 10^−5 molar; for Growth percent: IGROV1
SF-268 = format: cell-based; conditions: 10^−5 molar; for Growth percent: SF-268
OVCAR-5 = format: cell-based; conditions: 10^−5 molar; for Growth percent: OVCAR-5
UACC-62 = format: cell-based; conditions: 10^−5 molar; for Growth percent: UACC-62
CAKI-1 = format: cell-based; conditions: 10^−5 molar; for Growth percent: CAKI-1
M14 = format: cell-based; conditions: 10^−5 molar; for Growth percent: M14
MALME-3M = format: cell-based; conditions: 10^−5 molar; for Growth percent: MALME-3M
NCI/ADR-RES = format: cell-based; conditions: 10^−5 molar; for Growth percent: NCI/ADR-RES
A498 = format: cell-based; conditions: 10^−5 molar; for Growth percent: A498
SF-539 = format: cell-based; conditions: SF-539; 10^−5 molar
HOP-92 = format: cell-based; conditions: HOP-92; 10^−5 molar
SK-MEL-2 = format: cell-based; conditions: SK-Mel-2; 10^−5 molar

| Structure (SMILES) | melting point | Growth percent (OVCAR-4) | Growth percent (MDA-MB-435) | Growth percent (SF-539) | Growth percent (TK-10) | Growth percent (SK-MEL-28) | Growth percent (SNB-19) | Growth percent (IGROV1) | Growth percent (SF-268) | Growth percent (OVCAR-5) | Growth percent (UACC-62) | Growth percent (CAKI-1) | Growth percent (M14) | Growth percent (MALME-3M) | Growth percent (HOP-92) | Growth percent (NCI/ADR-RES) | Growth percent (SK-MEL-2) | Growth percent (A498) | Growth percent (UACC-257) | Growth percent (HCC-2998) | also measured |
| --- | --- | --- | --- | --- | --- | --- | --- | --- | --- | --- | --- | --- | --- | --- | --- | --- | --- | --- | --- | --- | --- |
| CC(C)CC(C)Nc1nc2ccccc2c2c(=O)c3cc(Cl)ccc3sc12 (stereo not drawn) [Compound N13, 10-Chloro-6-((4-methylpentan-2-yl)amino)-12H-thiochromeno[2,3-c]quinolin-12-one] | 176 to 177 °C | – | – | – | – | – | – | – | – | – | – | – | – | – | – | – | – | – | – | – | Growth percent UACC-257 (UACC-257; Melanoma, 48 hours, SRB): 114.40%; Growth percent OVCAR-4 (OVCAR-4; Ovarian cancer, 48 hours, SRB): 86.07%; Growth percent MDA-MB-435 (MDA-MB-435; Melanoma, 48 hours, SRB): 108.08%; Growth percent TK-10 (TK-10; Renal cancer, 48 hours, SRB): 123.23%; Growth percent SK-MEL-28 (SK-MEL-28; Melanoma, 48 hours, SRB): 106.87%; Growth percent SNB-19 (SNB-19; CNS cancer, 48 hours, SRB): 106.79%; Growth percent HCC-2998 (HCC-2998; Colon cancer, 48 hours, SRB): 112.26%; Growth percent OVCAR-3 (OVCAR-3): 115.22%; Growth percent IGROV1 (IGROV1; Ovarian cancer, 48 hours, SRB): 74.77%; Growth percent SF-268 (SF-268; CNS cancer, 48 hours, SRB): 105.52%; Growth percent OVCAR-5 (OVCAR-5; Ovarian cancer, 48 hours, SRB): 101.36%; Growth percent UACC-62 (UACC-62; Melanoma, 48 hours, SRB): 96.09%; Growth percent CAKI-1 (CAKI-1; Renal cancer, 48 hours, SRB): 86.38%; Growth percent M14 (M14; Melanoma, 48 hours, SRB): 94.27%; Growth percent MALME-3M (MALME-3M; Melanoma, 48 hours, SRB): 95.93%; Growth percent NCI/ADR-RES (NCI/ADR-RES; Ovarian cancer, 48 hours, SRB): 98.47%; Growth percent A498 (A498; Renal cancer, 48 hours, SRB): 75.01% |
| O=c1c2cc(Cl)ccc2sc2c(NCc3ccc4c(c3)OCO4)nc3ccccc3c12 [Compound N27, 6-((Benzo[d][1,3]dioxol-5-ylmethyl)amino)-10-chloro-12H-thiochromeno[2,3-c]quinolin-12-one] | 205 to 206 °C | 53.73% | 91.64% | 77.12% | 116.79% | 88.24% | 97.62% | 67.81% | 93.24% | 84.38% | 72.96% | 75.09% | 94.93% | 81.64% | 45.39% | 91.11% | 95.57% | 75.91% | – | – | – |
| O=c1c2cc(Cl)ccc2sc2c(NCCc3ccccc3)nc3ccccc3c12 [Compound N30, 10-Chloro-6-(phenethylamino)-12H-thiochromeno[2,3-c]quinolin-12-one] | 151 to 152 °C | 79.53% | 106.06% | 97.86% | 122.13% | 98.94% | 100.6% | – | 101.32% | 102.03% | 74.67% | 81.04% | 97.97% | 122.61% | 73.02% | 96.51% | 106.33% | 83.22% | 109.29% | 113.77% | – |
| COc1ccc(CCNc2nc3ccccc3c3c(=O)c4cc(Cl)ccc4sc23)cc1 [Compound N31, 10-Chloro-6-((4-methoxyphenethyl)amino)-12H-thiochromeno[2,3-c]quinolin-12-one] | 214 to 215 °C | 79.00% | 104.49% | 95.67% | 132.57% | 99.41% | 96.74% | 86.73% | 100.14% | 100.83% | 80.17% | 85.75% | 100.06% | 99.74% | 67.57% | 103.78% | 113.12% | 99.56% | 98.66% | 105.27% | – |
